One data set has as its target T1, human 11β-HSD1 (Homo sapiens, UniProt P28845).
T1 construct: stably transfected with a construct containing the full-length gene coding for the human 11β-HSD1 enzyme; expressed in transfected cells; host or cells: HEK293 (stably transfected, HEK293/11β-HSD1)
In words: Cellular in vitro 11β-HSD1 enzyme inhibition assay (SPA, HEK293/11β-HSD1 cells). Format: cell-based. On the procedure: Compounds were assessed by a Scintillation Proximity Assay (SPA) performed according to the following protocol:
HEK293 cells were stably transfected with a construct containing the full-length gene coding for the human 11β-HSD1 enzyme to create HEK293/11β-HSD1 cells. Cells were routinely cultured in DMEM containing 10% calf foetal serum, 1% glutamine, and 1% penicillin and streptomycin. Prior to assay, cells were plated at 2×10^4 cells/well in 96-well poly-D-Lys coated flat-bottomed microplates and incubated in 5% CO2, 95% O2 at 37° C. for 24 hours. The media in each well was removed immediately before assay.
Compounds to be tested were dissolved in DMSO at 10 mM and serially diluted into water containing 10% DMSO. Diluted compounds at a volume of 10 μL were added to wells of a 96-well V-bottomed microplate. A solution of DMEM, 1% glutamine, 1% penicillin and streptomycin, and 22 nM tritiated cortisone was prepared and 90 μL added to each well of the assay plate. This solution (100 μL/well) was transferred to the plate containing the cells. The plate was then incubated in 5% CO2, 95% O2 at 37° C. for 2 hours.
Following this incubation, 50 μL of the assay solution was transferred to each well of a 96-well scintillation microplate. A mixture consisting of anti-mouse YSi SPA beads, pre-mixed with anti-cortisol antibody in assay buffer (50 mM Tris.HCl, pH 7.0; 300 mM NaCl; 1 mM EDTA, 5% glycerol) was prepared and 50 μL added to each well of the scintillation microplate. An adhesive strip was applied to the microplate and the plate gently shaken for at least 2 hours at room temperature, and then spun briefly on a low speed centrifuge. The plate was read on a scintillation counter suitable for 96-well microplates. For the calculation of percentage inhibition, a series of wells were added to the plate that represented the assay maximum and the assay minimum: one set that contained substrate without cells (minimum) and another set that contained substrate and cells without any compound (maximum).
The calculation of median inhibitory concentration (IC50) values for the compounds was performed using GraphPad Prism® software. Dose-response curves for each compound were plotted as fractional inhibition and data fitted to the four parameter logistic equation.

Data set [1] in a line: In vitro human liver microsomal stability assay. It is filed as in vitro ADME. Conditions: human liver microsomes. On the procedure:
To predict in vivo metabolism of compounds, the stability of compounds incubated with human liver microsomes in vitro was determined. Human liver microsome preparations were stored at −80° C. and thawed on ice prior to use. The thawed microsomes were diluted to a concentration of 2 mg/mL in 50 mM sodium phosphate, pH 7.4. Reference and test compounds were prepared as 10 mM stocks in 100% DMSO and diluted to 1 mM in acetonitrile before use. Each compound was tested in triplicate as follows:
4 μL of test or reference compound was added to a well of a 24-well microplate and 0.5 mL of 4 mM NADPH added. The plate was then transferred to a shaker for 10 minutes at room temperature. 30 μL of the compound/NADPH solution was transferred to the well of a 96-well microplate and incubated at 37° C. for 5 minutes. 30 μL of human liver microsomes (pre-incubated at 37° C. for 5 minutes) was added to the well containing the compound/NADPH solution and the plate incubated for the selected period of time (typically 0 or 30 minutes). The reaction was stopped by adding 60 μL of ice cold […] trichloroacetic acid. The plate was centrifuged at 1000 rpm for 5 minutes at room temperature and the supernatant transferred to the well of a new 96-well V-bottomed microplate for mass spectrometric analysis.
Samples were analyzed by TSQ Quantum Discovery Tandem Mass Spectrometer and Surveyor Liquid Chromatogram (Thermo, Hemel-Hempstead, UK). 10 μL of each sample was injected in a mobile phase consisting of 60%:40% methanol:5 mM ammonium acetate at a flow rate of 0.5 mL/minute. The column used was a BDS hypersil, C18, 50×2.1 mm with a 5 μm particle size.
(§1) Each compound was tuned with a spray voltage of 3000 V and a capillary temperature of 300° C. and values for tube lens, CID and product ions were determined.
The peak area for each compound was measured in triplicate for the 0 and 30 minute samples and the average of each was reported. The percentage remaining after 30 minutes was calculated as the average peak area of the sample after 30 minutes divided by the average peak area at 0 minutes. The RSD was 10% or lower for each compound.
On the technique in general: Microsomes from liver hold many membrane-bound enzymes, among them those of drug oxidation.

Data set [2] is described as follows: Oral exposure and tissue distribution in rats. Conditions: rat, oral 10 mg/kg; for Cmax: male, Sprague Dawley, plasma, read-out: Plasma Cmax (maximum plasma concentration). Format: in vivo, male Sprague Dawley rats. On the procedure:
The circulating plasma levels and tissue distribution of certain compounds were determined following oral administration of compound (10 mg/kg) to male Sprague Dawley rats. Rats (n=3 per group) were culled at 1, 4 and 6 hours post dosing and trunk blood and tissues (liver, adipose and brain) excised. Blood samples at 30 minutes and 2 hours post dosing were taken by tail nick from the 4 hour and 6 hour rats respectively.
Compound was triple extracted from plasma (prepared from blood by a high speed centrifugation step) spiked with 1 μg of a standard compound using ethyl acetate. Extracts were dried under nitrogen and re-suspended in 60% methanol/40% ammonium acetate (5 mM).
A known weight of tissue was homogenized in 3 volumes Krebs buffer. Compound was triple extracted with ethyl acetate from the supernatant of a low speed spin spiked with 1 μg of a standard compound. Extracts were dried under nitrogen and re-suspended in 60% methanol/40% ammonium acetate (5 mM).
Samples from plasma and tissue were analyzed by TSQ Quantum Discovery Tandem Mass Spectrometer and Surveyor Liquid Chromatogram (Thermo, Hemel-Hempstead, UK). 10 μL of each sample was injected in a mobile phase consisting of 60%:40% methanol:5 mM ammonium acetate at a flow rate of 0.5 mL/minute. The column used was a BDS hypersil, C18, 50×2.1 mm with a 5 μm particle size.
as §1
The peak area for each compound and for the internal standard was determined and the concentration of compound per gram of tissue or mL of plasma was calculated by comparison of the peak area ratio to a standard curve.

The target of the next data set is T2, human 11β-HSD2 (Homo sapiens, UniProt P80365).
T2 construct: CHO cells stably transfected with the full-length gene coding for human 11β-HSD2 were used; expressed in transfected cells; host or cells: CHO (stably transfected)
T2 sequence (P80365 1-405): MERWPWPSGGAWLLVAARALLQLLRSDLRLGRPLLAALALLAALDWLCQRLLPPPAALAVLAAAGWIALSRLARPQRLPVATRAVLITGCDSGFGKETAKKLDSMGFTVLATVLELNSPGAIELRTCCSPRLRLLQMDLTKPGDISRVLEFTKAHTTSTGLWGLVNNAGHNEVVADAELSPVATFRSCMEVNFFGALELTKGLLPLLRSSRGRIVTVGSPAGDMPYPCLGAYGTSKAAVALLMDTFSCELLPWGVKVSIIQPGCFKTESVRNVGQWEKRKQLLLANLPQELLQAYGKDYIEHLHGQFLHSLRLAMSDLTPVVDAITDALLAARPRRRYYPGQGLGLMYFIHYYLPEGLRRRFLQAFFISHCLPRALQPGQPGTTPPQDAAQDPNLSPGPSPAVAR
The data set can be described thus: Cellular in vitro 11β-HSD2 enzyme inhibition assay (CHO cells). The settings on record: CHO cells transfected with human 11β-HSD2. It is filed as cell-based. On the procedure: For measurement of inhibition of 11β-HSD2, CHO cells stably transfected with the full-length gene coding for human 11β-HSD2 were used. Assays were carried out in 96-well microplates containing 1×10^5 cells/well. Controls and compounds were plated as above, so that the final DMSO concentration in each well was 1%. To initiate the assay, 90 μL of a solution of HAMS F-12 medium containing 1% glutamine, 1% penicillin and streptomycin, and 22 nM tritiated cortisol was added to each well of the assay plate. The plate was then incubated in 5% CO2, 95% O2 at 37° C. for 16 hours.
The assay solutions were transferred to glass tubes and […] added to each tube. Each tube was vortexed thoroughly and the upper layer containing the tritiated steroid transferred to a fresh glass tube. The solvent was evaporated by placing the tubes in a heating block at 65° C. under a stream of nitrogen gas. 20 μL ethanol was added to each of the dried samples and vortexed briefly. Each sample was applied to a silica TLC plate and the plate dried. The plate was placed vertically in a glass tank containing 92% chloroform: 8% ethanol and the solvent allowed to rise up the plate. The plate was dried, placed in an imaging cassette, and overlayed with a tritium imaging plate for 1-2 days. The amount of enzyme inhibition in each sample was determined by measuring the intensity of the substrate and product spots using a phospho-imager. IC50 values for inhibitors were determined as described above for 11β-HSD1.

The mark [3] stands for this setting: HEK293, potency groups, read-out: IC50 for 11β-HSD1 (HEK293).
The mark [4] stands for this setting: HEK293 cells transfected with human 11β-HSD1, first value in cell, read-out: IC50 for 11β-HSD1 (HEK293).
[5] abbreviates: HEK293 cells, value marked * in brackets, read-out: IC50 for 11β-HSD1 (HEK293), (*) average of at least two individual experiments.

The values that follow come from patent US9834549B2, “3,3-disubstituted-(8-aza-bicyclo[3.2.1]OCT-8-yl)-[5-(1H-pyrazol-4-yl)-thiophen-3-yl]-methanones as inhibitors of 11 (β)-HSD1” (The University Of Edinburgh, priority 2010, dated 2017).

Like-named read-outs stand apart in the source and are kept apart here.

T1 sequence (P28845 whole entry): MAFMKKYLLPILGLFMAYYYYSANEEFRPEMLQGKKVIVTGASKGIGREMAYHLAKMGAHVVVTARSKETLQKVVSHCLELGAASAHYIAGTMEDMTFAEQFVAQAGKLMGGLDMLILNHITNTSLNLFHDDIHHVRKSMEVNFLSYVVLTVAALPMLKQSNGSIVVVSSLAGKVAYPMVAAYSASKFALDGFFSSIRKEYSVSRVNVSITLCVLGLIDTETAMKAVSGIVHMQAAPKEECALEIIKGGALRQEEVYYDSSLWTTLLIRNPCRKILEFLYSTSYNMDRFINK

As for `O=C(c1csc(-c2cn[nH]c2)c1)N1C2CCC1CC(O)(c1cscn1)C2` (stereo not shown) [XX-36], the IC50 (as a rule, the concentration at which inhibition is half-maximal) at human 11β-HSD1 (setting [3]) is not above 100 nM. The “% Parent Remaining at 30 min” value in data set [1] is listed as “+++ (61-100% +++)”. Moreover, in data set [2], the Cmax is more than 1000 ng/mL and the “Liver Cmax (maximum liver concentration)” value is on record as “++ (3001-5000 ++)”.
On to `O=C(c1csc(-c2cn[nH]c2)c1)N1C2CCC1CC(F)(c1cccnn1)C2` (stereo not shown) [XX-43], for which the IC50 on human 11β-HSD1 (setting [3]) is not above 100 nM; on human 11β-HSD1 (setting [4]), 47 nM; at human 11β-HSD1 (setting [5]), 50 nM; against human 11β-HSD2 it was more than 10000 nM. In data set [1], the “% Parent Remaining at 30 min” value is on record as “+++ (61-100% +++)”.
For `O=C(c1csc(-c2cn[nH]c2)c1)N1C2CCC1CC(O)(c1cnccn1)C2` (stereo not shown) [XX-24], the results for the IC50 on human 11β-HSD1 (setting [3]), on human 11β-HSD1 (setting [4]) and at human 11β-HSD2 were not above 100 nM, 37 nM and more than 10000 nM, respectively. Besides, the Cmax in data set [2] was 501 to 1000 ng/mL. The “Liver Cmax (maximum liver concentration)” value in data set [2] is listed as “++ (3001-5000 ++)”.
Regarding `O=C(c1csc(-c2cn[nH]c2)c1)N1CCC(O)(c2ccncc2Cl)CC1` [YY-06], the values for the IC50 at human 11β-HSD1 (setting [3]), on human 11β-HSD1 (setting [4]) and against human 11β-HSD2 were not above 100 nM, 28 nM and more than 10000 nM, respectively. In addition, in data set [1], the “% Parent Remaining at 30 min” value is reported as “++ (31-60% ++)”.
The like results for `N#CC1(c2ccccn2)CC2CCC(C1)N2C(=O)c1csc(-c2cn[nH]c2)c1` (stereo not shown) [XX-18] were, in that order, not above 100 nM, 15 nM, more than 10000 nM and “+++ (61-100% +++)”.
On to `Cc1cccnc1C1(F)CC2CCC(C1)N2C(=O)c1csc(-c2cn[nH]c2)c1` (single isomer, unassigned) [XX-16, [3-Fluoro-3-(3-methyl-pyridin-2-yl)-8-aza-bicyclo[3.2.1]oct-8-yl]-[5-(1H-pyrazol-4-yl)-thiophen-3-yl]-methanone], for which the values for the IC50 at human 11β-HSD1 (setting [3]), on human 11β-HSD1 (setting [4]) and against human 11β-HSD2 were not above 100 nM, 9 nM and more than 10000 nM, respectively.
As for `O=C(c1csc(-c2cn[nH]c2)c1)N1C2CCC1CC(O)(c1ccccn1)C2` (stereo not shown) [XX-01], the IC50 was not above 100 nM at human 11β-HSD1 (setting [3]), 21 nM on human 11β-HSD1 (setting [4]), 28 nM at human 11β-HSD1 (setting [5]) and more than 10000 nM at human 11β-HSD2. Besides, in data set [1], the “% Parent Remaining at 30 min” value was “+++ (61-100% +++)”. Moreover, the Cmax in data set [2] is more than 1000 ng/mL. For the same molecule, the “Liver Cmax (maximum liver concentration)” value in data set [2] is listed as “++ (3001-5000 ++)”.
In the case of `O=C(c1csc(-c2cn[nH]c2)c1)N1CCC(O)(c2ncccc2Cl)CC1` [YY-02], the IC50 at human 11β-HSD1 (setting [3]) was not above 100 nM; at human 11β-HSD1 (setting [4]), 49 nM; on human 11β-HSD1 (setting [5]), 41 nM; at human 11β-HSD2, more than 10000 nM. Moreover, in data set [1], the “% Parent Remaining at 30 min” value was “++ (31-60% ++)”. Further, the Cmax in data set [2] was more than 1000 ng/mL. Also, in data set [2], the “Liver Cmax (maximum liver concentration)” value is on record as “+++ (>5001 +++)”.
Take `Cc1cccnc1C1(O)CC2CCC(C1)N2C(=O)c1csc(-c2cn[nH]c2)c1` (stereo not shown) [XX-07]: the IC50 on human 11β-HSD1 (setting [3]) is not above 100 nM; on human 11β-HSD1 (setting [4]), 3 nM; against human 11β-HSD2, more than 10000 nM.
`O=C(c1csc(-c2cn[nH]c2)c1)N1C2CCC1CC(F)(c1ncccc1Cl)C2` (stereo not shown) [XX-13, [3-(3-Chloro-pyridin-2-yl)-3-fluoro-8-aza-bicyclo[3.2.1]oct-8-yl]-[5-(1H-pyrazol-4-yl)-thiophen-3-yl]-methanone]: the IC50 at human 11β-HSD1 (setting [3]) is not above 100 nM; on human 11β-HSD1 (setting [4]) it was 31 nM; on human 11β-HSD2, more than 10000 nM. Also, in data set [1], the “% Parent Remaining at 30 min” value is “++ (31-60% ++)”.
For the molecule `O=C(c1csc(-c2cn[nH]c2)c1)N1C2CCC1CC(O)(c1ncccc1Cl)C2` (stereo not shown) [XX-03], the concentration for half-maximal inhibition (IC50) was not above 100 nM at human 11β-HSD1 (setting [3]), 12 nM at human 11β-HSD1 (setting [4]) and more than 10000 nM against human 11β-HSD2.
